Assay results reported in PubChem BioAssay AID1963828 (Molecular Pharmacology Branch, DTP, NCI, 2024).

Tested on: 991263-137-R1-J2-PDC complex spheroid viability
Experiment: Anticancer human tumor 991263-137-R1-J2-PDC patient-derived colon adenocarcinoma cell line growth inhibition [POLQ]
Conditions: for IC50: curve of first compound; for viability, T/C: stronger effect = lower value
Summary of the method: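 PDC + HUVEC + MSC complex spheroids; POLQ inhibitors ± partner drugs; top conc. at/near clinical Cmax, else 10 microM (SN-38 1 microM), half-log dilutions; 37 degrees C, 5% CO2.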

[1] = second compound 0.0316 µM, first compound 0.0316 µM
[2] = second compound 0.0316 µM, first compound 0.1 µM
[3] = second compound 0.0316 µM, first compound 0.316 µM
[4] = second compound 0.0316 µM, first compound 1 µM
[5] = second compound 0.0316 µM, first compound 3.16 µM
[6] = second compound 0.0316 µM, first compound 10 µM
[7] = second compound 0.1 µM, first compound 0.0316 µM
[8] = second compound 0.1 µM, first compound 0.1 µM
[9] = second compound 0.1 µM, first compound 0.316 µM
[10] = second compound 0.1 µM, first compound 1 µM
[11] = second compound 0.1 µM, first compound 3.16 µM
[12] = second compound 0.1 µM, first compound 10 µM
[13] = second compound 0.316 µM, first compound 0.0316 µM
[14] = second compound 0.316 µM, first compound 0.1 µM
[15] = second compound 0.316 µM, first compound 0.316 µM
[16] = second compound 0.316 µM, first compound 1 µM
[17] = second compound 0.316 µM, first compound 3.16 µM
[18] = second compound 0.316 µM, first compound 10 µM
[19] = second compound 1 µM, first compound 0.0316 µM
[20] = second compound 1 µM, first compound 0.1 µM
[21] = second compound 1 µM, first compound 0.316 µM
[22] = second compound 1 µM, first compound 1 µM
[23] = second compound 1 µM, first compound 3.16 µM
[24] = second compound 1 µM, first compound 10 µM
[25] = second compound 3.16 µM, first compound 0.0316 µM
[26] = second compound 3.16 µM, first compound 0.1 µM
[27] = second compound 3.16 µM, first compound 0.316 µM
[28] = second compound 3.16 µM, first compound 1 µM
[29] = second compound 3.16 µM, first compound 3.16 µM
[30] = second compound 3.16 µM, first compound 10 µM
[31] = second compound 10 µM, first compound 0.0316 µM
[32] = second compound 10 µM, first compound 0.1 µM
[33] = second compound 10 µM, first compound 0.316 µM
[34] = second compound 10 µM, first compound 1 µM
[35] = second compound 10 µM, first compound 3.16 µM
[36] = second compound 10 µM, first compound 10 µM
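Note: spheroids exposed to compounds for 7 days before readout.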
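Throughout, for viability, T/C: 100% = DMSO vehicle control viability.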

C#Cc1c(F)ccc2cc(O)cc(-c3ncc4c(N5CC6CCC(C5)N6)nc(OCC56CCCN5CC(F)C6)nc4c3F)c12 (stereo not drawn) + Nc1ccc(C#CCN(C(=O)Cc2ncc(C(F)(F)F)cc2C(F)(F)F)c2ccc(F)cc2)nn1
IC50 (second compound 0.0316 µM): > 10 µM | IC50 (second compound 0.1 µM): > 10 µM | IC50 (second compound 0.316 µM): > 10 µM | IC50 (second compound 1 µM): > 10 µM | IC50 (second compound 3.16 µM): > 10 µM | IC50 (second compound 10 µM): > 10 µM | viability, T/C [1]: 104% | viability, T/C [2]: 111% | viability, T/C [3]: 99.6% | viability, T/C [4]: 102% | viability, T/C [5]: 105% | viability, T/C [6]: 88% | viability, T/C [7]: 103% | viability, T/C [8]: 108% | viability, T/C [9]: 96.5% | viability, T/C [10]: 102% | viability, T/C [11]: 103% | viability, T/C [12]: 92% | viability, T/C [13]: 103% | viability, T/C [14]: 99.8% | viability, T/C [15]: 99.8% | viability, T/C [16]: 102% | viability, T/C [17]: 105% | viability, T/C [18]: 108% | viability, T/C [19]: 97.5% | viability, T/C [20]: 95.2% | viability, T/C [21]: 107% | viability, T/C [22]: 86.8% | viability, T/C [23]: 106% | viability, T/C [24]: 96.1% | viability, T/C [25]: 102% | viability, T/C [26]: 105% | viability, T/C [27]: 104% | viability, T/C [28]: 112% | viability, T/C [29]: 123% | viability, T/C [30]: 98.7% | viability, T/C [31]: 100% | viability, T/C [32]: 98.2% | viability, T/C [33]: 93.4% | viability, T/C [34]: 101% | viability, T/C [35]: 87.6% | viability, T/C [36]: 80.4%

CC1COCCN1c1cc(C2(O)CC3CCC(C2)O3)c2cnn(-c3ccn[nH]3)c2n1 (stereo not drawn) + Nc1ccc(C#CCN(C(=O)Cc2ncc(C(F)(F)F)cc2C(F)(F)F)c2ccc(F)cc2)nn1
IC50 (second compound 0.0316 µM): 1.97 µM | IC50 (second compound 0.1 µM): 1.83 µM | IC50 (second compound 0.316 µM): 1.97 µM | IC50 (second compound 1 µM): 1.81 µM | IC50 (second compound 3.16 µM): 1.25 µM | IC50 (second compound 10 µM): 0.882 µM | viability, T/C [1]: 105% | viability, T/C [2]: 104% | viability, T/C [3]: 83% | viability, T/C [4]: 62.2% | viability, T/C [5]: 42.5% | viability, T/C [6]: 30.5% | viability, T/C [7]: 88.2% | viability, T/C [8]: 97.1% | viability, T/C [9]: 80.2% | viability, T/C [10]: 59% | viability, T/C [11]: 43.2% | viability, T/C [12]: 30.8% | viability, T/C [13]: 109% | viability, T/C [14]: 108% | viability, T/C [15]: 89.9% | viability, T/C [16]: 63.4% | viability, T/C [17]: 40.8% | viability, T/C [18]: 33.1% | viability, T/C [19]: 110% | viability, T/C [20]: 101% | viability, T/C [21]: 81.5% | viability, T/C [22]: 61.5% | viability, T/C [23]: 38.9% | viability, T/C [24]: 32.7% | viability, T/C [25]: 96.8% | viability, T/C [26]: 88.7% | viability, T/C [27]: 77.4% | viability, T/C [28]: 52.8% | viability, T/C [29]: 36.5% | viability, T/C [30]: 31% | viability, T/C [31]: 78.3% | viability, T/C [32]: 82.1% | viability, T/C [33]: 67.3% | viability, T/C [34]: 45.7% | viability, T/C [35]: 36.4% | viability, T/C [36]: 24.5%

COc1cc2cc(C(=O)CCC(=O)O)sc2cc1OC + Nc1ccc(C#CCN(C(=O)Cc2ncc(C(F)(F)F)cc2C(F)(F)F)c2ccc(F)cc2)nn1
IC50 (second compound 0.0316 µM): > 10 µM | IC50 (second compound 0.1 µM): > 10 µM | IC50 (second compound 0.316 µM): > 10 µM | IC50 (second compound 1 µM): > 10 µM | IC50 (second compound 3.16 µM): > 10 µM | IC50 (second compound 10 µM): > 10 µM | viability, T/C [1]: 115% | viability, T/C [2]: 108% | viability, T/C [3]: 111% | viability, T/C [4]: 116% | viability, T/C [5]: 87.9% | viability, T/C [6]: 84.8% | viability, T/C [7]: 116% | viability, T/C [8]: 115% | viability, T/C [9]: 95.8% | viability, T/C [10]: 98.7% | viability, T/C [11]: 113% | viability, T/C [12]: 93.8% | viability, T/C [13]: 97.1% | viability, T/C [14]: 105% | viability, T/C [15]: 102% | viability, T/C [16]: 104% | viability, T/C [17]: 95% | viability, T/C [18]: 77.5% | viability, T/C [19]: 107% | viability, T/C [20]: 103% | viability, T/C [21]: 108% | viability, T/C [22]: 96.8% | viability, T/C [23]: 104% | viability, T/C [24]: 86.6% | viability, T/C [25]: 106% | viability, T/C [26]: 99.6% | viability, T/C [27]: 105% | viability, T/C [28]: 103% | viability, T/C [29]: 105% | viability, T/C [30]: 88.2% | viability, T/C [31]: 101% | viability, T/C [32]: 96.6% | viability, T/C [33]: 112% | viability, T/C [34]: 94.7% | viability, T/C [35]: 107% | viability, T/C [36]: 82.1%

O=C(Nc1ccc(O)c(NS(=O)(=O)c2ccc(F)cc2)c1)c1ccc(-c2ccccc2)cc1 + Nc1ccc(C#CCN(C(=O)Cc2ncc(C(F)(F)F)cc2C(F)(F)F)c2ccc(F)cc2)nn1
IC50 (second compound 0.0316 µM): > 10 µM | IC50 (second compound 0.1 µM): > 10 µM | IC50 (second compound 0.316 µM): > 10 µM | IC50 (second compound 1 µM): > 10 µM | IC50 (second compound 3.16 µM): > 10 µM | IC50 (second compound 10 µM): > 10 µM | viability, T/C [1]: 97.7% | viability, T/C [2]: 108% | viability, T/C [3]: 107% | viability, T/C [4]: 104% | viability, T/C [5]: 119% | viability, T/C [6]: 100% | viability, T/C [7]: 111% | viability, T/C [8]: 97.5% | viability, T/C [9]: 108% | viability, T/C [10]: 107% | viability, T/C [11]: 107% | viability, T/C [12]: 107% | viability, T/C [13]: 101% | viability, T/C [14]: 105% | viability, T/C [15]: 107% | viability, T/C [16]: 105% | viability, T/C [17]: 114% | viability, T/C [18]: 101% | viability, T/C [19]: 96.2% | viability, T/C [20]: 100% | viability, T/C [21]: 104% | viability, T/C [22]: 105% | viability, T/C [23]: 97.2% | viability, T/C [24]: 102% | viability, T/C [25]: 107% | viability, T/C [26]: 108% | viability, T/C [27]: 95.7% | viability, T/C [28]: 109% | viability, T/C [29]: 97.4% | viability, T/C [30]: 95.3% | viability, T/C [31]: 102% | viability, T/C [32]: 110% | viability, T/C [33]: 94.5% | viability, T/C [34]: 104% | viability, T/C [35]: 92.5% | viability, T/C [36]: 101%
